Data taken from patent US20100120700A1, “METHODS AND COMPOSITIONS FOR TREATING CERVICAL CANCER” (priority 2000, published 2010).
Several values for one entry are separate records, joined by “and”; a condition that tells them apart may be missing. Equal values may be shown once.

Tests used:
Assay in all cases: G assay PDZ-PL binding
KIAA0545 domain 1 = biological target: T1, KIAA0545 domain 1 (Homo sapiens, UniProt O60292); details: peptide 10 uM, protein 5
T1 construct: made in house; host or cells: E. coli (DH5alpha or BL-21)
Procedure: (§1) (1) A PDZ-domain polypeptide is bound to a surface, e.g. a protein binding surface. In a preferred embodiment, a GST/PDZ fusion protein containing one or more PDZ domains is bound to a polystyrene 96-well plate. […] In one embodiment, the GST/PDZ fusion protein is bound via an anti-GST antibody that is coated onto the 96-well plate. Adequate binding to the plate can be achieved when: • a. 100 uL per well of 5 ug/mL goat anti-GST polyclonal antibody (Pierce) in PBS is added to a polystyrene 96-well plate (e.g., Num Polysorb) at 4° C. for 12 hours. • b. The plate is blocked by addition of 200 uL per well of PBS/BSA for 2 hours at 4° C. • c. The plate is washed 3 times with PBS. • d. 50 uL per well of 5 ug/mL GST/PDZ fusion protein) or, as a negative control, GST polypeptide alone (i.e. not a fusion protein) in PBS/BSA is added to the plate for 2 hours at 4° C. • e. The plate is again washed 3 times with PBS. […]
(§2) (3) The binding of the biotinylated peptide to the GST/PDZ fusion protein surface can be detected using a variety of methods and detectors known to one of skill in the art. In one embodiment, 100 uL per well of 0.5 ug/mL streptavidin-horse radish peroxidase (HRP) conjugate dissolved in BSA/PBS is added and allowed to react for 20 minutes at 4° C. The plate is then washed 5 times with 50 mM Tris pH 8.0 containing 0.2% Tween 20, and developed by addition of 100 uL per well of HRP-substrate solution (TMB, Dako) for 20 minutes at room temperature (RT). The reaction of the HRP and its substrate is terminated by addition of 100 uL per well of 1M sulfuric acid, and the absorbance of each well of the plate is read at 450 nm.
(§3) (4) Specific binding of a PL peptide and a PDZ domain polypeptide is determined by comparing the signal from the well(s) in which the PL peptide and PDZ domain polypeptide are combined, with the background signal(s). The background signal is the signal found in the negative control(s). Typically a specific or selective reaction will be at least twice background signal, more typically more than 5 times background, and most typically 10 or more times the background signal. In addition, a statistically significant reaction will involve multiple measurements of the reaction with the signal and the background differing by at least two standard errors, more typically four standard errors, and most typically six or more standard errors. Correspondingly, a statistical test (e.g. a T-test) comparing repeated measurements of the signal with-repeated measurements of the background will result in a p-value<0.05, more typically a p-value<0.01, and most typically a p-value<0.001 or less. As noted, in an embodiment of the “G” assay, the signal from binding of a given PL peptide to immobilized (surface bound) GST polypeptide alone is one suitable negative control (sometimes referred to as “B 1”). Because all measurement are done in multiples (i.e. at least duplicate) the arithmetic mean (or, equivalently, average.) of several measurements is used in determining the binding, and the standard error of the mean is used in determining the probable error in the measurement of the binding. The standard error of the mean of N measurements equals the square root of the following: the sum of the squares of the difference between each measurement and the mean, divided by the product of (N) and (N−1). Thus, in one embodiment, specific binding of the PDZ protein to the platebound peptide is determined by comparing the mean signal (“mean S”) and standard error of the signal (“SE”) for a particular PL-PDZ combination with the mean B1.
(§4) For convenience, the assay conditions described in this section are referred to as the “G’ assay” and the “G” assay,” with the specific conditions described in the preceding section on G assays being referred to as the “G° assay.” The “G′ assay” is identical to the “G° assay” except at step (2) the peptide concentration is 10 uM instead of 20 uM. […]

KIAA0380 #25.8 domain 1 = biological target: T2, KIAA0380 #25.8 domain 1 (Homo sapiens, UniProt O15085); details: peptide 10 uM, protein 5
T2 construct: made in house; host or cells: E. coli (DH5alpha, BL21 or JM109), vector pGEX-3X
Procedure: as §1, §2, §3, §4

ZO-1 domain 1 = biological target: T3, ZO-1 domain 1 (Homo sapiens, UniProt Q07157); details: peptide 10 uM, protein 5
T3 construct: made in house; host or cells: E. coli (DH5alpha, BL21 or JM109)
Procedure: as §1, §2, §3, §4

[1] = biological target: T4, HEMBA 1003117 #193.3 domain 1 (Homo sapiens, UniProt Q96JH8); details: peptide 10 uM, protein 5
T4 construct: made in house; host or cells: E. coli (DH5alpha, BL21 or JM109)
Procedure: as §1, §2, §3, §4

KIAA1634 domain 1 = biological target: T5, KIAA1634 domain 1 (Homo sapiens, UniProt Q5TCQ9); details: peptide 10 uM, protein 5
T5 construct: made in house; host or cells: E. coli (DH5alpha, BL21 or JM109)
Procedure: as §1, §2, §3, §4

DLG2 domain 1 = biological target: T6, DLG2 domain 1 (Homo sapiens, UniProt Q15700); details: peptide 10 uM, protein 5
T6 construct: made in house; host or cells: E. coli (DH5alpha, BL21 or JM109), vector pGEX-3X
Procedure: as §1, §2, §3, §4

MINT1 domain 2 = biological target: T7, MINT1 domain 2 (Homo sapiens, UniProt Q02410); details: peptide 10 uM, protein 5
T7 construct: made in house; host or cells: E. coli (DH5alpha, BL21 or JM109), vector pGEX-3X
Procedure: as §1, §2, §3, §4

X-11 beta domain 1 = biological target: T8, X-11 beta domain 1 (Homo sapiens, UniProt Q99767); details: peptide 10 uM, protein 5
T8 construct: made in house; host or cells: E. coli (DH5alpha, BL21 or JM109)
Procedure: as §1, §2, §3, §4

KIAA1719 domain 5 = biological target: T9, KIAA1719 domain 5 (Homo sapiens, UniProt Q9C0E4); details: peptide 10 uM, protein 5
T9 construct: made in house; host or cells: E. coli (DH5alpha or BL-21)
Procedure: as §1, §2, §3, §4

TIP 43 #264.1 domain 1 = biological target: T10, TIP 43 #264.1 domain 1 (Homo sapiens, UniProt Q13884); details: vs GST only well, peptide 10 uM, protein 5
T10 construct: made in house; host or cells: E. coli (DH5alpha, BL21 or JM109)
Procedure: as §1, §2, §3, §4

PTPL1 domain 2 = biological target: T11, PTPL1 domain 2 (Homo sapiens, UniProt Q12923); details: peptide 10 uM, protein 5
T11 construct: made in house; host or cells: E. coli (DH5alpha, BL21 or JM109)
Procedure: as §1, §2, §3, §4

KIAA1526 #126.1 domain 2 = biological target: T12, KIAA1526 #126.1 domain 2 (Homo sapiens, UniProt Q9P202, G331W); details: peptide 10 uM, protein 5
T12 construct: made in house; host or cells: E. coli (DH5alpha, BL21 or JM109)
Procedure: as §1, §2, §3, §4

INADL domain 3 = biological target: T13, INADL domain 3 (Homo sapiens, UniProt Q8NI35); details: peptide 10 uM, protein 5
T13 construct: made in house; host or cells: E. coli (DH5alpha, BL21 or JM109)
Procedure: as §1, §2, §3, §4

T7 sequence (Q02410 with tags, fused parts or gaps): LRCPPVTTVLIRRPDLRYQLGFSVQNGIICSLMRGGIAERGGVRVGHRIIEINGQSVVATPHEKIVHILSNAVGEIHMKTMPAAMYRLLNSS
T5 sequence (Q5TCQ9 401-502): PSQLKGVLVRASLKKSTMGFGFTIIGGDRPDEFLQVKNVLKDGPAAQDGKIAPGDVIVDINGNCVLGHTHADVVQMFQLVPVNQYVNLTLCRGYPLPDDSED
T3 sequence (Q07157 with tags, fused parts or gaps): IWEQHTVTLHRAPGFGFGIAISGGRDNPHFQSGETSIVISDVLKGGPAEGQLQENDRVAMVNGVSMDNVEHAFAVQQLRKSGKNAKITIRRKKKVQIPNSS
T1 sequence (O60292 955-1050): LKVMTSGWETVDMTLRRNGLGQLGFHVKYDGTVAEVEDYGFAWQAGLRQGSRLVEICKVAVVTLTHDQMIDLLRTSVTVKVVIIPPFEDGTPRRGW
T8 sequence (Q99767 with tags, fused parts or gaps): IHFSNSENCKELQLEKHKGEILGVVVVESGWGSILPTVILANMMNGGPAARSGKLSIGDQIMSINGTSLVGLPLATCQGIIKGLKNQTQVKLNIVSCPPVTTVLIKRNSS
T4 sequence (Q96JH8 969-1068): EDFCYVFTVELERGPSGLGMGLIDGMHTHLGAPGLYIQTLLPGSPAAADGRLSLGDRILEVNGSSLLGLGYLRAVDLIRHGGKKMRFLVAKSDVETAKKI
T11 sequence (Q12923 1364-1458): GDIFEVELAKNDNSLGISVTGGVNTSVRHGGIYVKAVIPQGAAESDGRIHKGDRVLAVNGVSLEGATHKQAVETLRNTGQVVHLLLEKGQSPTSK
T10 sequence (Q13884 106-201): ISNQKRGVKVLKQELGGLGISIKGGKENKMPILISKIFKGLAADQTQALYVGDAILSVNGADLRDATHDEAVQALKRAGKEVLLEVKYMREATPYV
T12 sequence (Q9P202 272-371 G331W): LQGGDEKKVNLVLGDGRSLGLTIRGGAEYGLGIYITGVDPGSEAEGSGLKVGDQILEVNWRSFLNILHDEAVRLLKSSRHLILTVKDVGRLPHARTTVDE
T9 sequence (Q9C0E4 with tags, fused parts or gaps): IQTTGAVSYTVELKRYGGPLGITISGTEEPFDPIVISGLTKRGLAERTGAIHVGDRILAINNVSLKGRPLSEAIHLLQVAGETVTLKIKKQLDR
T2 sequence (O15085 45-123): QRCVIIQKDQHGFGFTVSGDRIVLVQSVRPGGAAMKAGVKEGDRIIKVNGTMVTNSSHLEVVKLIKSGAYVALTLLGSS
T13 sequence (Q8NI35 with tags, fused parts or gaps): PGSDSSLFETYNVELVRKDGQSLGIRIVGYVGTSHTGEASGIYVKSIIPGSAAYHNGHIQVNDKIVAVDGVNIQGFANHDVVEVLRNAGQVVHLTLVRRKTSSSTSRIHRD

20 mer peptide corresponding to the C-terminus of HPV16 E6 (PDZ ligand), biotinylated in binding assays; ends SSRTRRETQL (SEQ ID NO: 13) [HPV E6 #16]
Ave OD (KIAA0545 domain 1; A450 nm): 0.4395 | OD S/N (KIAA0545 domain 1; vs GST only well): 3.96 | Ave OD (KIAA0380 #25.8 domain 1; A450 nm): 0.603 | OD S/N (KIAA0380 #25.8 domain 1; vs GST only well): 3.58 | Ave OD (ZO-1 domain 1; A450 nm): 0.4125 and 0.5215 | OD S/N (ZO-1 domain 1; vs GST only well): 1.83 and 2.83 | Ave OD ([1]; A450 nm): 0.517 | OD S/N ([1]; vs GST only well): 2.20 | Ave OD (KIAA1634 domain 1; A450 nm): 3.465 and 3.336 | OD S/N (KIAA1634 domain 1; vs GST only well): 19.04 and 19.45 | Ave OD (DLG2 domain 1; A450 nm): 0.793 | OD S/N (DLG2 domain 1; vs GST only well): 3.59 | Ave OD (MINT1 domain 2; A450 nm): 0.5925 | OD S/N (MINT1 domain 2; vs GST only well): 2.76 and 2.24 | Ave OD (X-11 beta domain 1; A450 nm): 0.352 | OD S/N (X-11 beta domain 1; vs GST only well): 2.02 | Ave OD (KIAA1719 domain 5; A450 nm): 0.3895 | OD S/N (KIAA1719 domain 5; vs GST only well): 1.81 | OD S/N (TIP 43 #264.1 domain 1): 8.50 and 8.76 | Ave OD (PTPL1 domain 2; A450 nm): 0.348 | OD S/N (PTPL1 domain 2; vs GST only well): 1.80 | Ave OD (KIAA1526 #126.1 domain 2; A450 nm): 0.4625 | OD S/N (KIAA1526 #126.1 domain 2; vs GST only well): 1.87 | Ave OD (INADL domain 3; A450 nm): 0.485 | OD S/N (INADL domain 3; vs GST only well): 1.86
